# Publication PMC7226045, “Ensartinib (X-396) Effectively Modulates Pharmacokinetic Resistance Mediated by ABCB1 and ABCG2 Drug Efflux Transporters and CYP3A4 Biotransformation Enzyme” (Cancers, 2020)
# Where two headings read alike, the source gives them in different places.
# Assays:
# [1] = target: T1, ABCB1 (Homo sapiens, UniProt P08183); assay: MDCKII monolayer transport assay, MDCKII-ABCB1; format: in vitro ADME; conditions: dog
# T1 construct: expressed in transfected cells; host or cells: MDCKII-ABCB1 (from Dr. Alfred Schinkel, The Netherlands Cancer Institute)
# T1 sequence (P08183 whole entry): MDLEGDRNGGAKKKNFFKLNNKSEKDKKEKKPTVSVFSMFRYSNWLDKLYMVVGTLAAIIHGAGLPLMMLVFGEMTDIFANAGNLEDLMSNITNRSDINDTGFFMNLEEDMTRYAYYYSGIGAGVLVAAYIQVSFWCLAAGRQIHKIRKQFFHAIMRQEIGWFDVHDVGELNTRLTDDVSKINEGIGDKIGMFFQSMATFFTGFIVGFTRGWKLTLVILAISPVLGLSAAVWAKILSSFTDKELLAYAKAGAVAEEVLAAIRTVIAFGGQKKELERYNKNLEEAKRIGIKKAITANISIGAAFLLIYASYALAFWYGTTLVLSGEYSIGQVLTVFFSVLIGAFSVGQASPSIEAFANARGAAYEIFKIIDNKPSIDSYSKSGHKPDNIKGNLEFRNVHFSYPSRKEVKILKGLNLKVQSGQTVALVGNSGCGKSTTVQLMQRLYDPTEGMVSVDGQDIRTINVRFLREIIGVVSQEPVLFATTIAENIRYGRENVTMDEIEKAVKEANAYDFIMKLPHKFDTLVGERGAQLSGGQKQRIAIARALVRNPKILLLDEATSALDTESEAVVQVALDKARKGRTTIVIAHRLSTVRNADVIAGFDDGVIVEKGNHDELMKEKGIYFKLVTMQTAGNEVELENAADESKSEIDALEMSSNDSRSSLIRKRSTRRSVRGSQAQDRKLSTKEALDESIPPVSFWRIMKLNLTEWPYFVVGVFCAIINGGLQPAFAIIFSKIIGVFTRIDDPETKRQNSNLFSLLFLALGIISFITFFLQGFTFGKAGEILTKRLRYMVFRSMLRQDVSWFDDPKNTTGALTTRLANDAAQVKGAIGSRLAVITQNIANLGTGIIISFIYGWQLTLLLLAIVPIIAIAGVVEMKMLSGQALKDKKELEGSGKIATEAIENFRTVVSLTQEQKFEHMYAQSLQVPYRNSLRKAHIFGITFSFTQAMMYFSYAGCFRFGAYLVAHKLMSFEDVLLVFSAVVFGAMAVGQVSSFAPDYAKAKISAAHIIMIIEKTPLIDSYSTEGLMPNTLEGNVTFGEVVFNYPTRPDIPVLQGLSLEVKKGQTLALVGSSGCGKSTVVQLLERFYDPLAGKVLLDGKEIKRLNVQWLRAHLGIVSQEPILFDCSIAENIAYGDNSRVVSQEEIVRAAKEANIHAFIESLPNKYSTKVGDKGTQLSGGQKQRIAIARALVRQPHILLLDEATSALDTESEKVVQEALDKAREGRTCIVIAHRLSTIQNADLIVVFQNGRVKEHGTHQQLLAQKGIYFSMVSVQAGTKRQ
# Method: (§1) Transport assays were performed on microporous polycarbonate membrane filters (3 µm pore size, 24 mm diameter, Transwell 3414; Costar, Corning, NY, USA) using MDCKII parental as well as ABCB1-, ABCG2-, and ABCC1-overexpressing MDCKII cells. The cells were seeded at a density of 1.5 × 10^6 cells per insert and cultured to full confluence for 7 days with media exchanges on the second and fourth days. Before the start of the transport experiments, inserts were washed with 1 × PBS on both the apical and basal sides. The cells were then preincubated in Opti-MEM with or without model inhibitors (1 µM LY335979, 1 µM Ko143, or 25 µM MK-571). […] Ensartinib levels in samples were measured by UHPLC-MS/MS (see below). […]
# (§2) Samples from the monolayer transport assays (10 µL) were mixed with 100 µL of acetonitrile and 100 µL of methanol, vortexed for 15 min, and centrifuged at 14,500 rpm for 3 min. […] The MS source parameters were set to the following: drying gas, 320 °C, flow rate 10 l/min; sheath gas, 400 °C at 12 l/min; nebulizer pressure 25 psi; capillary voltage 4000 V; nozzle voltage 0 V. Transitions of [M+H]^+ ions were detected using a dwell time of 150 ms, a cell acceleration of 4 V, and fragmentor voltages of 137 V for 547→357, 257 and 120 transitions (corresponding to collision energies of 16, 32, and 56 V).
# [2] = target: T2, CYP3A5 (Homo sapiens, UniProt P20815); assay: Vivid CYP screening kit, recombinant CYP3A5; format: biochemical; conditions: recombinant enzyme, 15 min incubation, absolute IC50; read-out: CYP3A5 inhibition IC50
# T2 construct: purchased Thermo Fisher Scientific; host or cells: insect microsomal fractions
# T2 sequence (P20815 whole entry): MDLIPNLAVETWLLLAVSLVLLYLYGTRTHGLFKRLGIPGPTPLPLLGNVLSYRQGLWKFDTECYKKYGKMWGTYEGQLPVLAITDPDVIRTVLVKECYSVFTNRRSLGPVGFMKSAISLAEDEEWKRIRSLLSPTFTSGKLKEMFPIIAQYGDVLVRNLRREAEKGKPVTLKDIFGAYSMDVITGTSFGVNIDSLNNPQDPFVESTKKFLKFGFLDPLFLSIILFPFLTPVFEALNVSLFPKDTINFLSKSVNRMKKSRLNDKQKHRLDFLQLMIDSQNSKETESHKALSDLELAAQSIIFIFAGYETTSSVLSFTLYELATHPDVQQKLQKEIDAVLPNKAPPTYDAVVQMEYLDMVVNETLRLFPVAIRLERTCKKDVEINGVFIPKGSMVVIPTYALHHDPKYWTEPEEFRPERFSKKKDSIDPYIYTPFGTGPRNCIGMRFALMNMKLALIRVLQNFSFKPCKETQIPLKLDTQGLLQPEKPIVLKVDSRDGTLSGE
# Method: (§3) CYP inhibitory assay was performed as described previously. Experiments were performed with commercial Vivid CYP screening kits containing insect microsomal fractions enriched with a specific human CYP isoform, human CYP reductase, and in some cases, human cytochrome b5. The potential inhibitory activity of ensartinib toward CYP1A2, CYP2B6, CYP2C8, CYP2C9, CYP2C19, CYP2D6, CYP3A4, and CYP3A5 (i.e., all CYP isoforms that drug regulatory authorities recommend for testing of inhibition by new molecular entities) was then examined. Experiments were performed using a kinetic mode in black 96-well plates according to the manufacturer´s instructions. Briefly, 5-point serial dilutions of ensartinib or the model inhibitor recommended by the manufacturer in buffer were transferred into the wells, then a master mix consisting of a CYP isoenzyme with an NADPH regeneration system in buffer was added. After a 10 min pre-incubation, the reaction was initiated by adding a mixture of NADP^+ and the appropriate Vivid substrate, after which fluorescence was measured at 1 min intervals for 60 min using an Infinite M200 Pro microplate reader (Tecan, Männedorf, Switzerland). The enzyme concentration and incubation interval used for data evaluation (15 min) placed the systems within the linear regions of the appropriate reaction velocity curves. […]
# [3] = target: T3, CYP2C9 (Homo sapiens, UniProt P11712); assay: Vivid CYP screening kit, recombinant CYP2C9; format: biochemical; conditions: recombinant enzyme, 15 min incubation, absolute IC50; read-out: CYP2C9 inhibition IC50
# T3 construct: purchased Thermo Fisher Scientific; host or cells: insect microsomal fractions
# T3 sequence (P11712 whole entry): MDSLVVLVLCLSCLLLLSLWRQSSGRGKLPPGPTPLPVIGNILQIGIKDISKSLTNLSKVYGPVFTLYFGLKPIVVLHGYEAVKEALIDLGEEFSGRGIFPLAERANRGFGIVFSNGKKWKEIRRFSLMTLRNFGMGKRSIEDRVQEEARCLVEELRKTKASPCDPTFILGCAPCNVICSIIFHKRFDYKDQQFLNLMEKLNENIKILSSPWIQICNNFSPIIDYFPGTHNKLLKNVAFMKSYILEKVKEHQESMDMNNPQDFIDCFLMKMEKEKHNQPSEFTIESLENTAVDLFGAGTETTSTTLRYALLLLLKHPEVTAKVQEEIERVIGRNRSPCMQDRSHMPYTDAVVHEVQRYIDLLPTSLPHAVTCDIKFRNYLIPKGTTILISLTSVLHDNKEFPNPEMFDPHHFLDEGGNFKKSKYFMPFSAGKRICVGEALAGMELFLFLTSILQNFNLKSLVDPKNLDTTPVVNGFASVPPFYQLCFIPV
# Method: as §3
# [4] = test system: HepG2-EV cells; assay: Docetaxel combination assay (MTT), HepG2-EV; format: cell-based, human; conditions: 1 µM docetaxel, <0% antagonism, =0% additivity, >0% synergism
# Method: MTT proliferation assay was performed as described previously.
# Cell viability was measured after a 48 h incubation using the MTT method as described above. […] Sensitization effects of < 0%, 0%, and >0% indicate antagonism, additivity, and synergism, respectively.
# [5] = target: T4, ABCG2 (Homo sapiens, UniProt Q9UNQ0); assay: MDCKII monolayer transport assay, MDCKII-ABCG2; format: in vitro ADME; conditions: dog, 1 µM ensartinib, read-out: transport ratio (r), BA/AB
# T4 construct: expressed in transfected cells; host or cells: MDCKII-ABCG2 (from Dr. Alfred Schinkel, The Netherlands Cancer Institute)
# T4 sequence (Q9UNQ0 1-655): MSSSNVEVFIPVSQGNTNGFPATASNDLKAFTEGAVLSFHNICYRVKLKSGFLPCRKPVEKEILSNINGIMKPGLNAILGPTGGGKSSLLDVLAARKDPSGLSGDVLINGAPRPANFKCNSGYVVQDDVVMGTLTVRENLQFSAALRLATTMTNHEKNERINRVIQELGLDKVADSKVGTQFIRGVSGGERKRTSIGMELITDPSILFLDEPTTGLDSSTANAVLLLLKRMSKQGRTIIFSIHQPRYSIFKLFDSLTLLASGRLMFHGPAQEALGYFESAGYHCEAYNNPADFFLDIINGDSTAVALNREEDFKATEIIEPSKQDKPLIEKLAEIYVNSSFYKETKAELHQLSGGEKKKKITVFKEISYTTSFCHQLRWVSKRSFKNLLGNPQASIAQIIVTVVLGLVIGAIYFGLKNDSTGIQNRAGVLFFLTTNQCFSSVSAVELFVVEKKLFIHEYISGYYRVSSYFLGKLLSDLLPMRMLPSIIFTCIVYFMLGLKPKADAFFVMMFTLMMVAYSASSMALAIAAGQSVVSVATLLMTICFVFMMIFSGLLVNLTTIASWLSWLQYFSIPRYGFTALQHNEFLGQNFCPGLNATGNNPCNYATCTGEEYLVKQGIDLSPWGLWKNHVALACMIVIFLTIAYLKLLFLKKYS
# Method: as §1, §2
structure (smiles),measurement,setting,value
"C[C@@H]1CN(C(=O)c2ccc(NC(=O)c3cc(O[C@H](C)c4c(Cl)ccc(F)c4Cl)c(N)nn3)cc2)C[C@H](C)N1 [ensartinib, Ensartinib]","efflux ratio at 4 h, 1 µM","[1]; MDCK-MDR1, 1 µM ensartinib, read-out: transport ratio (r), BA/AB",15.6
same,"efflux ratio at 4 h, 1 µM","[1]; MDCK-MDR1, with LY335979, 1 µM ensartinib + 1 µM LY335979, read-out: transport ratio (r), BA/AB, with ABCB1 inhibitor",1.05
same,IC50,[2],19.1 µM
same,IC50,[3],4.93 µM
same,sensitization effect of combination with docetaxel,[4],antagonistic
same,"efflux ratio at 4 h, 1 µM",[5],1.15
